Results reported in BindingDB's records for doi:10.1021/acs.jnatprod.5b00062 (Albert-Ludwigs-University of Freiburg, 2015).
pIC50: −log10 of the molar value.

Experiments:
[1] = target: Sodium/potassium-transporting ATPase subunit alpha-1 (Rattus norvegicus, UniProt P06685); assay: Inhibition of Wistar rat kidney Na+,K+-ATPase alpha1 after 2 hrs
[2] = target: Sarcoplasmic/endoplasmic reticulum calcium ATPase 1 (Rattus norvegicus, UniProt Q64578); assay: Inhibition of Wistar rat EDL muscle SERCA1a after 1 hr
Chain of Sarcoplasmic/endoplasmic reticulum calcium ATPase 1 (Q64578 whole entry): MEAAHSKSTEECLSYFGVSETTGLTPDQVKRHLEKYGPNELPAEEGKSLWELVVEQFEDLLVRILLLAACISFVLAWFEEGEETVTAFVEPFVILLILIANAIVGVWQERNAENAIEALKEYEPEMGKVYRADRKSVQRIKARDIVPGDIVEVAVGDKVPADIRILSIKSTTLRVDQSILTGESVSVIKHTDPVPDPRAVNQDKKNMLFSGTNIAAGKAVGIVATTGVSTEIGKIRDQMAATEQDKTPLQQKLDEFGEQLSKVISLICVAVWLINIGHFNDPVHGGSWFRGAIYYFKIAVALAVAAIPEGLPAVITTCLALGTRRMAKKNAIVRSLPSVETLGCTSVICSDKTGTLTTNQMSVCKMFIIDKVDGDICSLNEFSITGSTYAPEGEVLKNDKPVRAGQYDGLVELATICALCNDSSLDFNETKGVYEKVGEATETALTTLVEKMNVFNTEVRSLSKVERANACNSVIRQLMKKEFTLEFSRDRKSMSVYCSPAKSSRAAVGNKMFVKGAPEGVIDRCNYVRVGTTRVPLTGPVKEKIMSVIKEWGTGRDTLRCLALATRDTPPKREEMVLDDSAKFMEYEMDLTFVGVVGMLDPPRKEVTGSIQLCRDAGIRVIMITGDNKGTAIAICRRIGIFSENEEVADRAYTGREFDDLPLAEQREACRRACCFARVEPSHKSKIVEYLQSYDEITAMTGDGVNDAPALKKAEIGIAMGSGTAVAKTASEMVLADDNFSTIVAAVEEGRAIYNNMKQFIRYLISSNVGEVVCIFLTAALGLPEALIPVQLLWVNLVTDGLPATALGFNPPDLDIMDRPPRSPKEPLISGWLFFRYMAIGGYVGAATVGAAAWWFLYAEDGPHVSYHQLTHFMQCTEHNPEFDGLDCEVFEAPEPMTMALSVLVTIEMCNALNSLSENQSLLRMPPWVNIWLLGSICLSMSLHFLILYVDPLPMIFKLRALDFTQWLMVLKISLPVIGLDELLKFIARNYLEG

## CC[C@H](C)[C@H]1O[C@]2(CC[C@@H]1C)C[C@@H]1C[C@@H](C/C=C(\C)[C@@H](O[C@H]3C[C@H](OC)[C@@H](O[C@H]4C[C@H](OC)[C@@H](O)[C@H](C)O4)[C@H](C)O3)[C@@H](C)/C=C/C=C3\CO[C@@H]4[C@H](O)C(C)=C[C@@H](C(=O)O1)[C@]34O)O2 [ABAMECTIN]
[1]
  pIC50: 5.08
[2]
  pIC50: 4.77
